Test results from PubChem BioAssay AID1963825 (Molecular Pharmacology Branch, DTP, NCI, 2024).

Assay: Anticancer human tumor 997537-175-T-J1-PDC patient-derived colon adenocarcinoma cell line growth inhibition [POLQ]
Conditions: 997537-175-T-J1-PDC complex spheroid viability, combination with POLQ inhibitors; for IC50: curve of first compound; for viability, T/C: stronger effect = lower value
In short: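 PDC + HUVEC + MSC complex spheroids; POLQ inhibitors ± partner drugs; top conc. at/near clinical Cmax, else 10 microM (SN-38 1 microM), half-log dilutions; 37 degrees C, 5% CO2.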
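Further: luminescence signal used as a surrogate for viable cells; spheroids exposed to drugs for seven days before readout.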

CC(=O)O[C@H]1C(=O)[C@@]2(C)[C@H]([C@H](OC(=O)c3ccccc3)[C@]3(O)C[C@H](OC(=O)[C@H](O)[C@@H](NC(=O)c4ccccc4)c4ccccc4)C(C)=C1C3(C)C)[C@]1(OC(C)=O)CO[C@@H]1C[C@@H]2O + COC1C(OC(N)=O)C(O)C(Oc2ccc3c(O)c(NC(=O)c4ccc(O)c(CC=C(C)C)c4)c(=O)oc3c2C)OC1(C)C
IC50 (second compound 0.0316 µM): 18.6 nM | IC50 (second compound 0.1 µM): < 9.49 nM | IC50 (second compound 0.316 µM): 82.6 nM | IC50 (second compound 1 µM): 16.5 nM | IC50 (second compound 3.16 µM): 14.6 nM | IC50 (second compound 10 µM): 17 nM | viability, T/C (second compound 0.0316 µM, first compound 0.00949 µM): 65.5% | viability, T/C (second compound 0.0316 µM, first compound 0.03 µM): 41.5% | viability, T/C (second compound 0.0316 µM, first compound 0.0949 µM): 24.5% | viability, T/C (second compound 0.0316 µM, first compound 0.3 µM): 41.6% | viability, T/C (second compound 0.0316 µM, first compound 0.949 µM): 23.9% | viability, T/C (second compound 0.0316 µM, first compound 3 µM): 42% | viability, T/C (second compound 0.1 µM, first compound 0.00949 µM): 46.6% | viability, T/C (second compound 0.1 µM, first compound 0.03 µM): 41% | viability, T/C (second compound 0.1 µM, first compound 0.0949 µM): 23.9% | viability, T/C (second compound 0.1 µM, first compound 0.3 µM): 44.9% | viability, T/C (second compound 0.1 µM, first compound 0.949 µM): 21.9% | viability, T/C (second compound 0.1 µM, first compound 3 µM): 28.1% | viability, T/C (second compound 0.316 µM, first compound 0.00949 µM): 70.7% | viability, T/C (second compound 0.316 µM, first compound 0.03 µM): 60.1% | viability, T/C (second compound 0.316 µM, first compound 0.0949 µM): 34.6% | viability, T/C (second compound 0.316 µM, first compound 0.3 µM): 50.9% | viability, T/C (second compound 0.316 µM, first compound 0.949 µM): 34% | viability, T/C (second compound 0.316 µM, first compound 3 µM): 18.2% | viability, T/C (second compound 1 µM, first compound 0.00949 µM): 66.9% | viability, T/C (second compound 1 µM, first compound 0.03 µM): 32.5% | viability, T/C (second compound 1 µM, first compound 0.0949 µM): 22.9% | viability, T/C (second compound 1 µM, first compound 0.3 µM): 29.6% | viability, T/C (second compound 1 µM, first compound 0.949 µM): 29.9% | viability, T/C (second compound 1 µM, first compound 3 µM): 35.3% | viability, T/C (second compound 3.16 µM, first compound 0.00949 µM): 61.8% | viability, T/C (second compound 3.16 µM, first compound 0.03 µM): 24.9% | viability, T/C (second compound 3.16 µM, first compound 0.0949 µM): 22.7% | viability, T/C (second compound 3.16 µM, first compound 0.3 µM): 30.7% | viability, T/C (second compound 3.16 µM, first compound 0.949 µM): 44% | viability, T/C (second compound 3.16 µM, first compound 3 µM): 28.1% | viability, T/C (second compound 10 µM, first compound 0.00949 µM): 67.2% | viability, T/C (second compound 10 µM, first compound 0.03 µM): 27% | viability, T/C (second compound 10 µM, first compound 0.0949 µM): 35.5% | viability, T/C (second compound 10 µM, first compound 0.3 µM): 40.1% | viability, T/C (second compound 10 µM, first compound 0.949 µM): 27.4% | viability, T/C (second compound 10 µM, first compound 3 µM): 35.6%
